One may read the IC50 as the concentration that gives 50% inhibition. Lower therefore signals higher potency.

One assay relates to B16. The experiment in a line: Cytotoxicity against Mus musculus (mouse) B16 cells after 3 days by MTT assay. The class given is functional, cell-based. The note with it: B16, 72 h. (In general: Tetrazolium assays rely on reduction of a dye to a coloured formazan, in cell work by metabolically active cells.)
For another assay, the system named is HeLa. The experiment in a line: Cytotoxicity against Homo sapiens (human) HeLa cells. Format: functional, cell-based.

The compound `COc1ccc(OC)c(C(=O)/C=C/c2ccc([N+](=O)[O-])cc2)c1` yielded an IC50 with B16 greater than 100 µM.

Regarding `COc1ccc(OC)c(/C=C/C(=O)c2ccc(OC)c(N)c2)c1`, it took 5.6 µM to reach half-maximal inhibition in the assay with B16 (IC50).

For the compound `COc1ccc(OC)c(/C=C/C(=O)c2ccc(OC)c([N+](=O)[O-])c2)c1`, the IC50 with B16 was determined as 13 µM.

In the case of `COc1ccc(C(=O)/C=C/c2ccccc2)cc1[N+](=O)[O-]`, the IC50 with B16 is greater than 100 µM.

Regarding `COc1ccc(C(=O)/C=C/c2ccccc2)cc1N`, the IC50 in the assay on B16 is greater than 100 µM.

Take `COc1ccc(/C=C/C(=O)c2ccc(OC)c([N+](=O)[O-])c2)cc1`: in the assay on B16, the IC50 was greater than 100 µM.

`COc1ccc(/C=C/C(=O)c2ccc(OC)c(N)c2)cc1`: it took 43 µM to reach half-maximal inhibition with B16 (IC50).

`COc1cccc(/C=C/C(=O)c2ccc(OC)c([N+](=O)[O-])c2)c1` displayed an IC50 with B16 greater than 100 µM.

With `COc1cccc(/C=C/C(=O)c2ccc(OC)c(N)c2)c1`, half-maximal inhibition in the assay on B16 (IC50) required 33 µM.

For `COc1cc(/C=C/C(=O)c2ccc(OC)c([N+](=O)[O-])c2)cc(OC)c1`, in the assay on B16, the IC50 came out at 5.6 µM.

As to `COc1cc(/C=C/C(=O)c2ccc(OC)c(N)c2)cc(OC)c1`, in the assay on B16, the IC50 was found to be 8.8 µM. This IC50 is about 1.6-fold higher than that of the compound before.

Take `COc1ccc(/C=C/C(=O)c2ccc(OC)c([N+](=O)[O-])c2)cc1OC`: in the assay on B16, the IC50 is greater than 100 µM.

Regarding `COc1ccc(C(=O)/C=C/c2ccc(OC)c(OC)c2)cc1N`, half-maximal inhibition in the assay with B16 (IC50) required 18 µM.

In the assay with B16, `COc1ccc(C(=O)/C=C/c2cc(OC)c(OC)c(OC)c2)cc1[N+](=O)[O-]` showed an IC50 greater than 100 µM.

Consider `COc1ccc(C(=O)/C=C/c2cc(OC)c(OC)c(OC)c2)cc1N`, for which half-maximal inhibition with B16 (IC50) was put at 67 µM. In other words, the double-digit micromolar range.

For the compound `COc1ccc(OC)c(C(=O)/C=C/c2ccc(N)cc2)c1`, the IC50 in the assay with B16 is greater than 100 µM.

`COc1ccc(OC)c(C(=O)/C=C/c2ccc(OC)c([N+](=O)[O-])c2)c1` yielded an IC50 in the assay on B16 greater than 100 µM.

For `COc1ccc(OC)c(C(=O)/C=C/c2ccc(OC)c(N)c2)c1`, the half-maximal inhibitory concentration (IC50) in the assay on B16 is 2 µM.

Consider `COc1cc(C(=O)/C=C/c2ccc(N)cc2)cc(OC)c1OC`, for which the IC50 in the assay with B16 was determined as 30 µM; in the assay on HeLa it was 0.48 µM.

Consider `COc1ccc(/C=C/C(=O)c2cc(OC)c(OC)c(OC)c2)cc1N`, for which 0.24 µM corresponded to half-maximal inhibition with B16 (IC50).

`COc1ccc(/C=C/C(=O)c2cc(OC)c(OC)c(OC)c2)cc1[N+](=O)[O-]` registered an IC50 with B16 greater than 100 µM.

On to `COc1cc(C(=O)/C=C/c2ccc([N+](=O)[O-])cc2)cc(OC)c1OC`, for which the IC50 with B16 is greater than 100 µM; with HeLa it was 73 µM.

(Values after ChEMBL document CHEMBL3045661, “SYNTHESIS AND CYTOTOXIC PROPERTIES OF NITRO- AND AMINOCHALCONES” (Med Chem Res, 2005).)
